The source of these data is US20260199468A1, “COMPOSITIONS AND METHODS FOR TREATING CANCER USING CELL THERAPIES” (Orca Biosystems, Inc., priority 2023, published 2026).

In series [1] the test system is CAR T cells. The experiment in a line: In vitro CAR T cell cytotoxicity with tacrolimus. In kind it is cell-based. The settings on record: higher concentrations of tacrolimus, FIGS. 2-5. The method, then:
(§1) CAR T cells used in the clinical study described in Example 1 were assessed according to standard in vitro methods; CD19 CAR expression was assessed (FIG. 2); CAR T cell cytotoxicity was assessed (FIG. 3); CD3 T cell proliferation was assessed (FIG. 4); and CAR T cell proliferation was assessed (FIG. 4).

The test system of series [2] is CAR T cells. Kind of series: In vitro CAR T cell proliferation with tacrolimus. It counts as cell-based. The conditions noted are these: higher concentrations of tacrolimus; in the presence or absence of tumor. The procedure: as §1
For series [3] the following is noted: healthy subjects, oral administration; cited from earlier work.

As for `C=CC[C@@H]1/C=C(\C)C[C@H](C)C[C@H](OC)[C@H]2O[C@@](O)(C(=O)C(=O)N3CCCC[C@H]3C(=O)O[C@H](/C(C)=C/[C@@H]3CC[C@@H](O)[C@H](OC)C3)[C@H](C)[C@@H](O)CC1=O)[C@H](C)C[C@@H]2OC` [tacrolimus], the “CAR T cytotoxicity” value with CAR T cells [1] was “reduced CAR T cytotoxicity”; in the series with CAR T cells [1] (listed as Tacrolimus), “Reduces CAR T Cytotoxicity in a Dose-Dependent Manner”. In addition, the “CAR T cell proliferation” value in the series with CAR T cells [2] is on record as “reduced CAR T cell proliferation”. For the same compound, in series [3], the absolute bioavailability was 18±5%.
